From paper PMC10094418, “Butein Inhibits Cell Growth by Blocking the IL-6/IL-6Rα Interaction in Human Ovarian Cancer and by Regulation of the IL-6/STAT3/FoxO3a Pathway” (International Journal of Molecular Sciences, 2023)

Key:
SKOV3 cells = assay: Wound-healing assay, SKOV3; assay type: cell-based, human; conditions: 24 h and 48 h, concentration-dependent, vs control, 0.1% DMSO and siltuximab
Description: A2780 and SKOV3 cells were cultured to 90% confluence in 6-well plates. After changing to a serum-free medium, the cell monolayer was scraped to artificially form homogeneous wound with uniform thickness. The drug treatment for each well was carried out in the following manner: siltuximab at 50 μM; butein at 10, 25, and 50 μM. The cells were imaged at 0, 24, and 48 h.

A2780 cells = assay: Matrigel invasion assay, A2780; assay type: cell-based, human; conditions: 48 h
Description: Matrigel invasion assays were performed using a BioCoat Matrigel Invasion Chamber (BD Bioscience, Bedford, MA, USA). A2780 and SKOV3 cells (50,000 cells) were placed inside the chamber in serum-free medium containing 500 μL of drugs, and 700 μL of medium containing serum were placed outside the chamber. After incubation for 48 h, the infiltrating cells were stained using the Differential Quick Stain Kit (Cat.no. 26096-50, Electron Microscopy Sciences, Hatfield, PA, USA). Cells were imaged with a Slide Scanner (Aperio CS2, Leica Microsystems, Wetzlar, Germany) and the number of invading cells was quantified using Image J.

O=C(/C=C/c1ccc(O)c(O)c1)c1ccc(O)cc1O [butein]
Cell migration, SKOV3 (SKOV3 cells): reduced
Cell infiltration (invasion), A2780 (A2780 cells): similarly affected
